Results from patent US5593984A, “Cephalosporin derivatives” (Yuhan Corporation, priority 1992, dated 1997).
In brackets after ≈: the same amount, converted by molar mass.

Key:
Type in all cases: cell-based
Staph. aureus C-5216 = test: MIC by agar dilution, Staph. aureus C-5216; settings: Staphylococcus aureus, C5216, 17 h, Mueller-Hinton agar, read-out: Minimal Inhibitory Concentration (MIC)
Procedure, shortened: (§1)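 Each compound was serially halved and mixed into Mueller-Hinton agar medium. Bacteria (10^6 CFU per ml) were then inoculated by replicator, and growth was assessed after incubation for 17±1 hours at 35°-37° C.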

Ent. aerogenes IFO 12979 = test: MIC by agar dilution, Ent. aerogenes IFO 12979; settings: Klebsiella aerogenes, IFO12979, 17 h, Mueller-Hinton agar, read-out: Minimal Inhibitory Concentration (MIC)
Procedure, shortened: as §1

B. subtilis ATCC 6633 = test: MIC by agar dilution, B. subtilis ATCC 6633; settings: Bacillus subtilis, ATCC6633, 17 h; B. subtilis ATCC 6633; agar dilution, Mueller-Hinton agar; read-out: Minimal Inhibitory Concentration (MIC)
Procedure, shortened: as §1

E. coli No. 29 = test: MIC by agar dilution, E. coli No. 29; settings: Escherichia coli, 17 h; E. coli No. 29; agar dilution, Mueller-Hinton agar; read-out: Minimal Inhibitory Concentration (MIC)
Procedure, shortened: as §1

K. pneumoniae NCTC 9632 = test: MIC by agar dilution, K. pneumoniae NCTC 9632; settings: Klebsiella pneumoniae, NCTC9632, 17 h; K. pneumoniae NCTC 9632; agar dilution, Mueller-Hinton agar; read-out: Minimal Inhibitory Concentration (MIC)
Procedure, shortened: as §1

Ent. cloacae IFO 13535 = test: MIC by agar dilution, Ent. cloacae IFO 13535; settings: Enterobacter cloacae, IFO13535, 17 h; Ent. cloacae IFO 13535; agar dilution, Mueller-Hinton agar; read-out: Minimal Inhibitory Concentration (MIC)
Procedure, shortened: as §1

Staph. aureus ATCC 6538P = test: MIC by agar dilution, Staph. aureus ATCC 6538P; settings: Staphylococcus aureus, ATCC6538P, 17 h; Staph. aureus ATCC 6538P; agar dilution, Mueller-Hinton agar; read-out: Minimal Inhibitory Concentration (MIC)
Procedure, shortened: as §1

E. coli DY-1 = test: MIC by agar dilution, E. coli DY-1; settings: Escherichia coli, DY1, 17 h; E. coli DY-1; agar dilution, Mueller-Hinton agar; read-out: Minimal Inhibitory Concentration (MIC)
Procedure, shortened: as §1

[1] = test system: Ps. aeruginosa NCTC 10490; test: MIC by agar dilution, Ps. aeruginosa NCTC 10490; settings: Pseudomonas aeruginosa, NCTC10490, 17 h, Mueller-Hinton agar, read-out: Minimal Inhibitory Concentration (MIC)
Procedure, shortened: as §1

[2] = test system: Ser. marcescens IFO 12648; test: MIC by agar dilution, Ser. marcescens IFO 12648; settings: Serratia marcescens, IFO12648, 17 h; Ser. marcescens IFO 12648; agar dilution, Mueller-Hinton agar; read-out: Minimal Inhibitory Concentration (MIC)
Procedure, shortened: as §1

E. coli NIHJ JC-2 = test: MIC by agar dilution, E. coli NIHJ JC-2; settings: Escherichia coli, NIHJJC2, 17 h; E. coli NIHJ JC-2; agar dilution, Mueller-Hinton agar; read-out: Minimal Inhibitory Concentration (MIC)
Procedure, shortened: as §1

P. vulgaris NCTC 8313 = test: MIC by agar dilution, P. vulgaris NCTC 8313; settings: Proteus vulgaris, NCTC8313, 17 h; P. vulgaris NCTC 8313; agar dilution, Mueller-Hinton agar; read-out: Minimal Inhibitory Concentration (MIC)
Procedure, shortened: as §1

Staph. aureus C-5113 = test: MIC by agar dilution, Staph. aureus C-5113; settings: Staphylococcus aureus, C5113, 17 h, Mueller-Hinton agar, read-out: Minimal Inhibitory Concentration (MIC)
Procedure, shortened: as §1

Prov. stuartii IFO 12930 = test: MIC by agar dilution, Prov. stuartii IFO 12930; settings: Providencia stuartii, IFO12930, 17 h, Mueller-Hinton agar, read-out: Minimal Inhibitory Concentration (MIC)
Procedure, shortened: as §1

Staph. aureus Smith = test: MIC by agar dilution, Staph. aureus Smith; settings: Staphylococcus aureus, 17 h, Mueller-Hinton agar, read-out: Minimal Inhibitory Concentration (MIC)
Procedure, shortened: as §1

M. morganii DY-1 = test: MIC by agar dilution, M. morganii DY-1; settings: Morganella morganii, DY1, 17 h; M. morganii DY-1; agar dilution, Mueller-Hinton agar; read-out: Minimal Inhibitory Concentration (MIC)
Procedure, shortened: as §1

[3] = test system: Ps. aeruginosa ATCC 10145; test: MIC by agar dilution, Ps. aeruginosa ATCC 10145; settings: Pseudomonas aeruginosa, ATCC10145, 17 h, Mueller-Hinton agar, read-out: Minimal Inhibitory Concentration (MIC)
Procedure, shortened: as §1

Staph. aureus C-57 = test: MIC by agar dilution, Staph. aureus C-57; settings: Staphylococcus aureus, C57, 17 h, Mueller-Hinton agar, read-out: Minimal Inhibitory Concentration (MIC)
Procedure, shortened: as §1

Ps. aeruginosa DY-2 = test: MIC by agar dilution, Ps. aeruginosa DY-2; settings: Pseudomonas aeruginosa, DY2, 17 h; Ps. aeruginosa DY-2; agar dilution, Mueller-Hinton agar; read-out: Minimal Inhibitory Concentration (MIC)
Procedure, shortened: as §1

[4] = test system: S. epidermidis ATCC 12228; test: MIC by agar dilution, S. epidermidis ATCC 12228; settings: Staphylococcus epidermidis, ATCC12228, 17 h; S. epidermidis ATCC 12228; agar dilution, Mueller-Hinton agar; read-out: Minimal Inhibitory Concentration (MIC)
Procedure, shortened: as §1

Row | MIC (Staph. aureus C-5216) [µg/mL] | MIC (Ent. aerogenes IFO 12979) [µg/mL] | MIC (B. subtilis ATCC 6633) [µg/mL] | MIC (E. coli No. 29) [µg/mL] | MIC (K. pneumoniae NCTC 9632) [µg/mL] | MIC (Ent. cloacae IFO 13535) [µg/mL] | MIC (Staph. aureus ATCC 6538P) [µg/mL] | MIC (E. coli DY-1) [µg/mL] | MIC [1] [µg/mL] | MIC [2] [µg/mL] | MIC (E. coli NIHJ JC-2) [µg/mL] | MIC (P. vulgaris NCTC 8313) [µg/mL] | MIC (Staph. aureus C-5113) [µg/mL] | MIC (Prov. stuartii IFO 12930) [µg/mL] | MIC (Staph. aureus Smith) [µg/mL] | MIC (M. morganii DY-1) [µg/mL] | MIC [3] [µg/mL] | MIC (Staph. aureus C-57) [µg/mL] | MIC (Ps. aeruginosa DY-2) [µg/mL] | MIC [4] [µg/mL] | SMILES
1 | 3.13 (≈ 5.63 µM) | 0.05 (≈ 0.09 µM) | 0.39 (≈ 0.702 µM) | 0.05 (≈ 0.09 µM) | 0.2 (≈ 0.36 µM) | 3.13 (≈ 5.63 µM) | 1.56 (≈ 2.81 µM) | 0.05 (≈ 0.09 µM) | 1.56 (≈ 2.81 µM) | 0.1 (≈ 0.18 µM) | 0.1 (≈ 0.18 µM) | 0.025 (≈ 0.045 µM) | 3.13 (≈ 5.63 µM) | 0.05 (≈ 0.09 µM) | 3.13 (≈ 5.63 µM) | 0.2 (≈ 0.36 µM) | 6.25 (≈ 11.2 µM) | 100 (≈ 180 µM) | 12.5 (≈ 22.5 µM) | 0.1 (≈ 0.18 µM) | CCON=C(C(=O)NC1C(=O)N2C(C(=O)[O-])=C(C[n+]3ccn4c(C=O)ccc4c3)CSC12)c1csc(N)n1 (stereo not drawn) [Ex. 26, 7-β-[(Z)-2-(2-aminothiazol-4-yl)2-ethoxyiminoacetamido]-3-(6-formylpyrrolo[1,2-a]pyrazinium-2-yl)methyl-3-cephem-4-carboxylate]
2 | 0.78 (≈ 1.32 µM) | ≤ 0.006 | 0.1 (≈ 0.17 µM) | ≤ 0.006 | 0.012 (≈ 0.0204 µM) | 0.1 (≈ 0.17 µM) | 0.2 (≈ 0.34 µM) | ≤ 0.006 | 0.2 (≈ 0.34 µM) | 0.012 (≈ 0.0204 µM) | ≤ 0.006 | ≤ 0.006 | 0.78 (≈ 1.32 µM) | ≤ 0.006 | 0.78 (≈ 1.32 µM) | 0.012 (≈ 0.0204 µM) | 0.78 (≈ 1.32 µM) | 100 (≈ 170 µM) | 1.56 (≈ 2.65 µM) | 0.05 (≈ 0.0849 µM) | CON=C(C(=O)NC1C(=O)N2C(C(=O)[O-])=C(C[n+]3ccn4c(SCCN)ccc4c3)CSC12)c1csc(N)n1 (stereo not drawn) [Ex. 27, 7-β-[(Z)-2-(2-aminothiazol-4-yl)2-methoxyiminoacetamido]-3-[6-(2-aminoethylthio)pyrrolo[1,2-a]pyrazinium-2-yl]methyl-3-cephem-4-carboxylate]
3 | 0.78 (≈ 1.29 µM) | 0.012 (≈ 0.0199 µM) | 0.1 (≈ 0.166 µM) | 0.012 (≈ 0.0199 µM) | 0.05 (≈ 0.083 µM) | 0.2 (≈ 0.332 µM) | 0.2 (≈ 0.332 µM) | 0.012 (≈ 0.0199 µM) | 0.39 (≈ 0.647 µM) | 0.05 (≈ 0.083 µM) | 0.025 (≈ 0.0415 µM) | 0.012 (≈ 0.0199 µM) | 0.78 (≈ 1.29 µM) | 0.012 (≈ 0.0199 µM) | 0.78 (≈ 1.29 µM) | 0.05 (≈ 0.083 µM) | 1.56 (≈ 2.59 µM) | 50 (≈ 83 µM) | 3.13 (≈ 5.19 µM) | 0.05 (≈ 0.083 µM) | CCON=C(C(=O)NC1C(=O)N2C(C(=O)[O-])=C(C[n+]3ccn4c(SCCN)ccc4c3)CSC12)c1csc(N)n1 (stereo not drawn) [Ex. 28, 7-β-[(Z)-2-(2-aminothiazol-4-yl)2-ethoxyiminoacetamido]-3-[6-(2-aminoethylthio)pyrrolo[1,2-a]pyrazinium-2-yl]methyl-3-cephem-4-carboxylate]
4 | 0.78 (≈ 1.29 µM) | ≤ 0.006 | 0.05 (≈ 0.0824 µM) | ≤ 0.006 | ≤ 0.006 | 0.012 (≈ 0.0198 µM) | 0.2 (≈ 0.33 µM) | ≤ 0.006 | 0.2 (≈ 0.33 µM) | ≤ 0.006 | ≤ 0.006 | ≤ 0.006 | 0.78 (≈ 1.29 µM) | ≤ 0.006 | 0.78 (≈ 1.29 µM) | ≤ 0.006 | 0.78 (≈ 1.29 µM) | 25 (≈ 41.2 µM) | 6.25 (≈ 10.3 µM) | 0.05 (≈ 0.0824 µM) | NCCSc1ccc2c[n+](CC3=C(C(=O)[O-])N4C(=O)C(NC(=O)C(=NOCF)c5csc(N)n5)C4SC3)ccn12 (stereo not drawn) [Ex. 29, 7-β-[(Z)-2-(2-aminothiazol-4-yl)2-fluoromethoxyiminoacetamido]-3-[6-(2-aminoethylthio)pyrrolo[1,2-a]pyrazinium-2-yl]methyl-3-cephem-4-carboxylat]
